Columns and labels:
CYP2C8 = molecular target: T1, CYP2C8 (Homo sapiens, UniProt P10632); experiment: CYP450 inhibition in human liver microsomes
T1 sequence (P10632 1-490): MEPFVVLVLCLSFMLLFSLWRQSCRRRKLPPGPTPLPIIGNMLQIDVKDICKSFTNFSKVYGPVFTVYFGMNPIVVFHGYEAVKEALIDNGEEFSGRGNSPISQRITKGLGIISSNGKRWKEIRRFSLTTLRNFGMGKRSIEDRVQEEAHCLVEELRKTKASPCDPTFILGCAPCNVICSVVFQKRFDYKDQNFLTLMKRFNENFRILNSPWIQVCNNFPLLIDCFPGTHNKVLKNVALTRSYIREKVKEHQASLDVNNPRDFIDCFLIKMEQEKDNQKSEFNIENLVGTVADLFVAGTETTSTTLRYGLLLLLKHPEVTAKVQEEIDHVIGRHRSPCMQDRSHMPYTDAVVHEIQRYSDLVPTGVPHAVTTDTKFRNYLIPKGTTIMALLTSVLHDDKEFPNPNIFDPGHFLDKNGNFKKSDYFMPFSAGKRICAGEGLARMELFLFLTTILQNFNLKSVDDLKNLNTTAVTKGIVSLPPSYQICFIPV

melatonin MT = molecular target: T2, melatonin MT (Homo sapiens, UniProt P48039); experiment: Melatonin MT GTPγS binding assay; assay type: biochemical; conditions: GTPγS bound relative to 2-iodomelatonin response, CHO-K1 cells; read-out: IC50 against melatonin
T2 construct: expressed in transfected cells; host or cells: CHO-K1
T2 sequence (P48039 whole entry): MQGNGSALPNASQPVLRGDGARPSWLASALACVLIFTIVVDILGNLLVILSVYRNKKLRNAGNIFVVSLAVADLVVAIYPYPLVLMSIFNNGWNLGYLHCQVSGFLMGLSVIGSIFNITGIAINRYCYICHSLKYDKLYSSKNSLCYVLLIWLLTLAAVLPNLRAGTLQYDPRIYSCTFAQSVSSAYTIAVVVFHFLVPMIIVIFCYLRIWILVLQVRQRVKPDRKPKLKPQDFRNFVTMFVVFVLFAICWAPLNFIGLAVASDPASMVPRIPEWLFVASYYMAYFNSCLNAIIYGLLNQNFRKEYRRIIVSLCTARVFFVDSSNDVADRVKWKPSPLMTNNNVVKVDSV
Procedure: […] CHO-K1 cells Chinese hamster ovary were used in this assay. The final DMSO concentration in the assay was about 0.4%. The assay mixture was incubated at 30° C. for 30 min in an incubation buffer (20 mM HEPES, pH 7.4, 100 mM NaCl, 10 mM MgCl2, 1 mM DTT, and 1 mM EDTA). The assay was quantitated by measuring the amount of [^35S]GTPγS bound relative to 2-iodomelatonin response.

CYP2D6 = CYP2D6 (Homo sapiens, UniProt P10635); experiment: CYP450 inhibition in human liver microsomes
CYP2D6, sequence (P10635 whole entry): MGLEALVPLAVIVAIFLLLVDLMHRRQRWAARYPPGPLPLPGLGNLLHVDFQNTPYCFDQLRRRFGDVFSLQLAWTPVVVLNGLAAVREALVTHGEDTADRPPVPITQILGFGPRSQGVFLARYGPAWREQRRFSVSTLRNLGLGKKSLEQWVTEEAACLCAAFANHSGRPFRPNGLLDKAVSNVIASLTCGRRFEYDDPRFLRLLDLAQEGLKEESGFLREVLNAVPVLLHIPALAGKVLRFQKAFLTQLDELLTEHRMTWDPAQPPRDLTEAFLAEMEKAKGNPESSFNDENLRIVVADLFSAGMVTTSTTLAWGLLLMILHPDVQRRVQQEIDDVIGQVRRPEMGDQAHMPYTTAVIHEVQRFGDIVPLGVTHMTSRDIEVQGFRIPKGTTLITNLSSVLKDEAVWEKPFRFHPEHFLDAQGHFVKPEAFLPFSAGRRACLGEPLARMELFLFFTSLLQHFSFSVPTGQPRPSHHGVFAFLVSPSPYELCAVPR

[1] = Pharmacokinetic studies in monkeys; conditions: for AUCall / Cl-obs / Cmax: monkeys
Procedure: (§1) Three male cynomolgus monkeys were fasted overnight and through four hours postdose. Two 100 μL aliquots of each dosing formulation were taken predose. Three monkeys were given a single gavage dose of a test compound at 10 mg/kg, followed by an approximately 10.0 mL tap water flush of the gavage tube. After a 1 week washout period, two of the three monkeys received a single IV bolus dose of a test compound at 1 mg/kg in a peripheral vein followed by approximate 1.0 mL saline flush.

CYP1A2 = molecular target: T3, CYP1A2 (Homo sapiens, UniProt P05177); experiment: CYP450 inhibition in human liver microsomes
T3 sequence (P05177 1-516): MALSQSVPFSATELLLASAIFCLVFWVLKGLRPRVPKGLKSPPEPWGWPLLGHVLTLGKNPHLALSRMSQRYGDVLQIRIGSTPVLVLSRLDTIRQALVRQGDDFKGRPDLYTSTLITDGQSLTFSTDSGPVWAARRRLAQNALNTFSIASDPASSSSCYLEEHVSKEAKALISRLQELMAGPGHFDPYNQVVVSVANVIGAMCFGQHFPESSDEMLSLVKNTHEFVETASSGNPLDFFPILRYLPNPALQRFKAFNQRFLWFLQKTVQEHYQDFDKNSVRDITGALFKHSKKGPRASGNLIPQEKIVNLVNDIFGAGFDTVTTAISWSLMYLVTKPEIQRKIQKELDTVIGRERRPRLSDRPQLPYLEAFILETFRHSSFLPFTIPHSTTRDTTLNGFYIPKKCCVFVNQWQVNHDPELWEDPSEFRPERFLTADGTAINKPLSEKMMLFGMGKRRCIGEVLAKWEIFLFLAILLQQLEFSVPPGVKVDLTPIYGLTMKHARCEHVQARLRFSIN

phosphodiesterase PDE5 = molecular target: T4, phosphodiesterase PDE5 (Homo sapiens, UniProt O76074); experiment: Inhibition of phosphodiesterase PDE5; assay type: biochemical; conditions: human platelets; read-out: IC50 against phosphodiesterase PDE5
T4 construct: from tissue; host or cells: human platelets
Procedure: Acta 1976, 429, 485-497 and Nicholson et al., Trends Pharmacol. Sci. 1991, 12, 19-27. Human platelets were used in this assay. The final DMSO concentration in the assay was about 1%. The assay was pre-incubated at 25° C. for 15 min and then incubated at 25° C. for 20 min in an incubation buffer (50 mM Tris-HCl, pH 7.5, 5 mM MgCl2). The assay was quantitated by measuring the amount of [^3H]guanosine.

CYP2B6 = molecular target: T5, CYP2B6 (Homo sapiens, UniProt P20813); experiment: CYP450 inhibition in human liver microsomes
T5 sequence (P20813 1-491): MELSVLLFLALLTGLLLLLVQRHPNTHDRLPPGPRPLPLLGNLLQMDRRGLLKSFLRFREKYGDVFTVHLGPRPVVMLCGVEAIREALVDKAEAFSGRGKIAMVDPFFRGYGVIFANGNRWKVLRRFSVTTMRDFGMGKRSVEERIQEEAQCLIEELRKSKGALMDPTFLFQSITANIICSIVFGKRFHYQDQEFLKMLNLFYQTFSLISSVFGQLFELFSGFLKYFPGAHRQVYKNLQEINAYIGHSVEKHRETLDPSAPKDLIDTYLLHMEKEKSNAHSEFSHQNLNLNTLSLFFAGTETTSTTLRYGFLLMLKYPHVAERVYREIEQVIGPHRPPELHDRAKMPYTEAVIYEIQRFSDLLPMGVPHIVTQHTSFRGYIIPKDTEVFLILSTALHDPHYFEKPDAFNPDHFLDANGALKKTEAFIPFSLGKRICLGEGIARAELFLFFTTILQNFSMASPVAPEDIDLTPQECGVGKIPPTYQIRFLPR

[2] = test system: GM-CSFR/JAK2/STAT5 pathway in csTF-1 cells; experiment: csTF-1 cell-based reporter assay; conditions: Homo sapiens, GM-CSF at 2 ng/mL, beta-lactamase reporter, read-out: EC50, inhibition of GM-CSF stimulated reporter activity
Procedure: After 16 hr incubation, cells were seeded at 2×10^5 cell/well in 50 μL volume, into Costar, clear bottom, 96-well assay plates. Serial dilutions of compounds were added to the plates with final DMSO concentration at 0.5% and GM-CSF at 2 ng/mL and the plates were then incubated at 30° C. and 5% CO2 for 4 hrs. The plates were brought to room temperature before adding Substrate Mixture according to manufacturer's protocol (Invitrogen, Catalog #K1085). The assay plates containing the substrate mixture were incubated in the dark at room temperature for 2 hrs. Blue and green fluorescence were measured with excitation at 409 nm and emission at 460 nm (for blue) and excitation at 409 nm and emission at 530 nm (for green) using Spectra Max Gemini EM.

in vivo = conditions: male, cynomolgus monkey
Procedure: as §1

[3] = cynomolgus monkey, in vivo
Procedure: as §1

[4] = Racemic administered IV 1 mg/kg, chiral analysis, label = analyte
[5] = Racemic administered PO 10 mg/kg, chiral analysis, label = analyte
[6] = compound administered IV 1 mg/kg, analyte = compound administered
[7] = compound administered PO 10 mg/kg, analyte = compound administered

| SMILES | IC50 (CYP2C8) | IC50 (melatonin MT) | IC50 (CYP2D6) | bioavailability ([1]; male, cynomolgus monkey, in vivo, 10 mg/kg) | AUCall [1, 4] | Cl-obs [1, 4] | AUCall [1, 5] | Cmax [1, 5] | AUCall [1, 6] | Cl-obs [1, 6] | AUCall [1, 7] | Cmax [1, 7] | IC50 (CYP1A2) | IC50 (phosphodiesterase PDE5) | IC50 (CYP2B6) | EC50 [2] | bioavailability (in vivo) | share of the Cmax and AUC values determined for the racemic compound ([3]; male) | enantiomers present in plasma ([3]; po) |
| --- | --- | --- | --- | --- | --- | --- | --- | --- | --- | --- | --- | --- | --- | --- | --- | --- | --- | --- | --- |
| Cc1cc(Nc2nc(C(O)c3ccc(F)cc3)nc3ccccc23)n[nH]1 (racemic) [Racemate] | 23.1 µM | 9.75 µM | > 40 µM | > 100% | 2.19 µM·h | 21.27 mL/min/kg | 46.20 µM·h | 5.76 µM | 2.19 µM·h | 21.27 mL/min/kg | 46.20 µM·h | 5.76 µM | < 0.31 µM | 9.34 µM | > 40 µM | 0.07 µM |  |  |  |
| Cc1cc(Nc2nc([C@H](O)c3ccc(F)cc3)nc3ccccc23)n[nH]1 [(R)(−)] | 26.9 µM |  | > 40 µM |  |  |  |  |  |  |  |  |  | 1.7 µM |  | > 40 µM | 0.075 µM | > 100% | over 85% |  |
| Cc1cc(Nc2nc([C@@H](O)c3ccc(F)cc3)nc3ccccc23)n[nH]1 [(S)(+)] | 22.7 µM |  | > 40 µM |  |  |  |  |  |  |  |  |  | < 0.31 µM |  | > 40 µM | 0.038 µM | 89% |  | both enantiomers were present in plasma in almost equal proportions |
